The record followed here is ChEMBL document CHEMBL4673286, “Selective recognition of DNA parallel G-quadruplexes by 3,8a-disubstituted indolizinones” (Bioorg Med Chem, 2021).

The test system of series [1] is Quadruplex DNA. The series can be described thus: Binding affinity to c-myc G-quadruplex DNA (unknown origin) in PBS buffer 40 mM K+ at 5 uM by spectrofluorimetric analysis. The series is classed as nucleic-acid assay.
A further series deals with MCF7. The series can be described thus: Cytotoxicity against human MCF7 cells assessed as reduction in cell viability at 10 uM incubated for 72 hrs by MTT assay relative to control. The series is classed as functional. A general note: Tetrazolium dyes change colour on reduction, which living cells bring about.
For another series, the system named is HeLa. The series can be described thus: Cytotoxicity against human HeLa cells assessed as reduction in cell viability at 10 uM incubated for 72 hrs by MTT assay relative to control. The series is classed as functional.
In the next series the test system is HT-1080. The series can be described thus: Cytotoxicity against human HT-1080 cells assessed as reduction in cell viability at 10 uM incubated for 72 hrs by MTT assay relative to control. The series is classed as functional.
Series [2] relates to Quadruplex DNA. The series can be described thus: Binding affinity to c-myc G-quadruplex DNA (unknown origin) in PBS buffer (40 mM K+, pH 7.4) by spectrofluorimetric analysis. The series is classed as nucleic-acid assay.
The subject of series [3] is Quadruplex DNA. The series can be described thus: Effect on c-myc G-quadruplex DNA (unknown origin) configuration in water at 5 uM spectropolarimeter. The series is classed as ADME, nucleic-acid assay. The note with it: buffer.
Series [4] concerns Quadruplex DNA. The series can be described thus: Effect on c-myc G-quadruplex DNA (unknown origin) configuration in PBS buffer 40 mM K+ at 5 uM by spectropolarimeter. The series is classed as ADME, nucleic-acid assay.
The nature of series [5]: Drug localization in nucleus of human HeLa cells at 10 uM incubated for 4 hrs in presence of urea by propidium iodide staining based by confocal microscopy. The series is classed as ADME.
Series [6] is described as follows: Drug localization in cytoplasm of human HeLa cells at 10 uM incubated for 4 hrs by propidium iodide staining based by confocal microscopy. The series is classed as ADME.
The nature of series [7]: Drug localization in human HeLa cells at 10 uM incubated for 4 hrs by MitoTracker Deep Red and Lyso-Tracker Red DND-99 staining based by confocal microscopy. The series is classed as ADME, cell-based.
Series [8] can be described thus: Drug localization in cytoplasm of human MCF7 cells at 10 uM incubated for 4 hrs by propidium iodide staining based by confocal microscopy. The series is classed as ADME, cell-based. The note with it: mcf7, 4 h.
Series [9] in a line: Drug localization in nucleus of human MCF7 cells at 10 uM incubated for 4 hrs in presence of urea by propidium iodide staining based by confocal microscopy. The series is classed as ADME, cell-based. As to conditions: mcf7, 4 h.
A short description of series [10]: Drug localization in nucleus of human HeLa cells at 10 uM incubated for 4 hrs by propidium iodide staining based by confocal microscopy. The series is classed as ADME.
A further series concerns DNA. The series can be described thus: Binding affinity to ds26 DNA sequence (unknown origin) by spectrofluorimetric analysis. The series is classed as nucleic-acid assay.
Series [11] in a line: Binding affinity to dx12ab DNA sequence (unknown origin) by spectrofluorimetric analysis.
Series [12] can be described thus: Drug localization in nucleus of human MCF7 cells at 10 uM incubated for 4 hrs by propidium iodide staining based by confocal microscopy. The series is classed as ADME, cell-based. As to conditions: mcf7, 4 h.
The nature of series [13]: Binding affinity to TBA DNA sequence (unknown origin) by spectrofluorimetric analysis.

Molecules are shown by their SMILES. Active and inactive are the calls of the source. The calls are words filed in the database; no cut-off is given here.

Regarding `O=C1C=C(c2ccc([N+](=O)[O-])cc2)N2C=CC=CC12c1ccccn1` (stereo not given), in the series on Quadruplex DNA [1], the outcome was Active. For the same compound, the inhibition at 10 µM in the series on MCF7 was 12.5%; in the series with HeLa, 2.9%; with HT-1080 it was -4.2%. The K result with Quadruplex DNA [2] is “inactive”. Besides, the Activity entry in the series with Quadruplex DNA [3] and in the series on Quadruplex DNA [4] was “Not Active” each time.

Regarding `O=C1C=C(c2ccccn2)N2C=CC=CC12c1ccccn1` (stereo not given), the result in the series on Quadruplex DNA [1] was Active. For the same compound, the results for the inhibition at 10 µM with MCF7, in the series on HeLa and with HT-1080 were 7.9%, 3.7% and 8.5%, respectively. Moreover, the Activity result with Quadruplex DNA [3] and with Quadruplex DNA [4] was “Not Active” throughout.

`O=C1C=C(c2ccc(-c3ccccc3)cc2)N2C=CC=CC12c1ccccn1` (stereo not given): in the series with Quadruplex DNA [1], the result was Active. The figures for the inhibition at 10 µM with MCF7, in the series on HeLa and in the series on HT-1080 were 14.3%, 5.7% and 32.2%, respectively. For the same compound, the Activity result in the series on Quadruplex DNA [3] and in the series with Quadruplex DNA [4] was “Not Active” throughout.

As to `O=C1C=C(c2ccc(Cl)cc2)N2C=CC=CC12c1ccccn1` (stereo not given), the result in the series on Quadruplex DNA [1] was Active. The figures for the inhibition at 10 µM in the series with MCF7, in the series on HeLa and with HT-1080 were 4.7%, 16.6% and 15.6%, respectively. The Activity entry in the series with Quadruplex DNA [3] and in the series on Quadruplex DNA [4] was “Not Active” throughout.

With `COc1ccc(C2=CC(=O)C3(c4ccccn4)C=CC=CN23)cc1` (stereo not given), the result in the series on Quadruplex DNA [1] was Active. In addition, the inhibition at 10 µM stood at 0.6% in the series on MCF7, 3.2% in the series with HeLa and 46.1% in the series with HT-1080. Besides, the Activity entry with Quadruplex DNA [3] and in the series with Quadruplex DNA [4] was “Not Active” each time.

Regarding `O=C1C=C(c2cccnc2)N2C=CC=CC12c1ccccn1` (stereo not given), the outcome in the series with Quadruplex DNA [1] was Active. The inhibition at 10 µM in the series with MCF7 came out at 16.5%; in the series with HeLa, 3%; in the series on HT-1080 it was 30.3%. The Activity result with Quadruplex DNA [3] and with Quadruplex DNA [4] was “Not Active” in each case.

For `O=c1[nH]cc(F)c(=O)[nH]1` [FLUOROURACIL], the inhibition at 10 µM in the series on MCF7 amounted to 41.9%; in the series with HeLa it was 44%; with HT-1080, 65.3%.

With `O=C1C=C(c2ccncc2)N2C=CC=CC12c1ccccn1` (stereo not given), the result in the series with Quadruplex DNA [1] was Active. Also, the inhibition at 10 µM in the series on MCF7 worked out at 19.3%; in the series with HeLa, 5.9%; in the series on HT-1080 it was 1.8%. For the same compound, the Activity entry in the series on Quadruplex DNA [3] and in the series with Quadruplex DNA [4] was “Not Active” throughout.

In the case of `O=C1C=C(c2ccc3ccccc3c2)N2C=CC=CC12c1ccccn1` (stereo not given), the result with Quadruplex DNA [1] was Active. For the same compound, the Drug uptake entry in [5], in [6], in series [7], in series [8], in series [9] and in series [10] was “Active” throughout. For the same compound, the Drug uptake result in series [12] is recorded as “Active”. Also, the inhibition at 10 µM in the series on MCF7 was 24.3%; in the series with HeLa it was 11.1%; in the series with HT-1080, 30.4%. Moreover, the K result (in the series with DNA; in [11]; in series [13]) was “inactive” each time. For the same compound, the Activity result in the series with Quadruplex DNA [3] and with Quadruplex DNA [4] was “Not Active” each time.

In the case of `O=C1C=C(c2ccc3ccccc3c2)N2C=CC=CC12C(F)(F)F` (stereo not given), the result with Quadruplex DNA [1] was Active. Moreover, the inhibition at 10 µM in the series on MCF7 was -11.9%; in the series on HeLa, -1.3%; in the series with HT-1080, 2.9%. The Activity result in the series on Quadruplex DNA [3] and with Quadruplex DNA [4] was “Not Active” each time.

Take `O=C1C=C(c2ccccc2)N2C=CC=CC12C(F)(F)F` (stereo not given): the outcome with Quadruplex DNA [1] was Active. Moreover, the values for the inhibition at 10 µM in the series with MCF7, in the series with HeLa and in the series with HT-1080 were 18.7%, -4.7% and 15.9%, respectively. Besides, the K result with Quadruplex DNA [2] is “inactive”. Also, the Activity result with Quadruplex DNA [3] and in the series on Quadruplex DNA [4] was “Not Active” in each case.

The inhibition is the relative decrease from the control value, in per cent.
